Results taken from patent publication US10907219B2, “Compositions and methods for controlling cellular function” (STC.UNM, priority 2014, dated 2021).
“Also recorded” adds a separate entry of the source.

Assays:
Assay type in all cases: cell-based
[1] = test system: CHO cells transfected with ABA-inducible luciferase constructs; test: ABA-inducible luciferase assay; details: for stability in cell culture: 12 or 24 h, luciferase assay
Experimental: The cellular stability of ABA-DMNB was explored further using a more sensitive and quantitative luciferase assay system, which employs an inducible luciferase construct (FIG. 21A). CHO cells were transfected with the ABA-inducible luciferase constructs for 24 hours and then 10 μM of ABA-DMNB was added and incubated in dark for 12 or 24 hours. Cells were then harvested and analyzed by using the luciferase assay.
Cell culture and transfection: CHO cells and HEK 293T EGFP reporter cells (provided by Dr. Gerald R. Crabtree) were cultured in Dulbecco's modified Eagle's medium (DMEM; GIBCO, Life Technologies, Carlsbad, Calif.) with 10% FBS (Atlanta Biologicals, Inc., Norcross, Ga.), 1×GlutaMAX (GIBCO, Life Technologies, Carlsbad, Calif.), and 1× penicillin/streptomycin (Pen/Strep; GIBCO, Life Technologies, Carlsbad, Calif.). 15,000-50,000 ells were plated in a 24-well or 8-well plate for 24 hours before transfection. DNA constructs (0.1 μg-0.5 μg) were added to 50× (v/w) Opti-MEM (GIBCO, Life Technologies, Carlsbad, Calif.), and then 3× (v/w) PEI (Polysciences, Inc., Warrington, Pa.) was mixed with the DNA. The mixture was incubated for 20 minutes at room temperature before adding it to cell cultures. The cells were grown for one day after transfection before experiments were performed.
Luciferase assay: Cells from 24-well plates were washed with PBS and lysed with Reporter lysis buffer (100 μL; Promega Corp., Madison, Wis.) by incubation and gentle shaking at room temperature for 10 minutes after a freeze/thaw cycle. Cell lysates were centrifuged at 15,000 rpm in an Eppendorf 5424 Centrifuge with lysate used for the luciferase assay (25 μL). Luciferase assay reagent (100 μL, 5 mg luciferin (Gold Biotechnology, Inc., St. Louis, Mo.) and coenzyme A (7 mg; Sigma-Aldrich, St. Louis, Mo.) in Luciferase Assay Buffer (33 mL, 20 mM tricine, 1.07 mM (MgCO3)4Mg(OH)2.5 H2O, 2.67 mM MgSO4, 0.1 mM EDTA, 33.3 mM dithiothreitol, and 0.53 mM ATP in water) was added to lysates. Luciferase assay reagent was added through the auto-injector of a GLOMAX-Multi Detection System (Promega Corp., Madison, Wis.), and the signal was detected by the instrument with a 1.5 s delay and 0.5 s integration time. All experiments were conducted in triplicate.

[2] = test system: myr-ABI and EGFP-PYL-Tiam1 in CHO cells; test: Light-induced ruffling via Tiam1 membrane localization / Rac1 signaling (fixed cells); details: for percentage of cells displaying ruffling: compared with ABA-DMNB without irradiation or no drug
Source text: Next, we examined the induction of ruffle formation through the activation of the Rac1 signaling pathway in order to determine if the light-activated ABA system can be used to regulate a complex biological process. The GTP exchange factor, Tiam1, when presents at the cell membrane, activates Rac1 to initiate a signaling pathway that leads to cytoskeletal remodeling that forms filopodia and/or lamellipodia. To activate Rac1 signaling and induce membrane ruffling, light and ABA-DMNB were used to control membrane localization of Tiam1 (FIG. 23A). A construct encoding a membrane localized ABI (myr-ABI) and one expressing a constitutively active Tiam1 fused to EGFP and PYL were employed for this purpose (FIG. 23A). Following the transfection of CHO cells with both plasmids for 24 hours, 10 μM of ABA-DMNB was added and the treated cell culture was irradiated with 365 nm light from a fluorescent microscope. Cells were then fixed on slides and analyzed under a fluorescence microscope. […] Some background ruffling when overexpressing constitutively active Tiam1 was observed even when no drug was added.
(§1) Slide preparation: Cells were grown on glass coverslips in 24-well plates. The coverslips were washed with phosphate-buffered saline (PBS) and fixed with 4% paraformaldehyde (PFA, 300 μL, prepared in PBS) at room temperature for 20 min. The cells were then washed twice with PBS and incubated with 1×DAPI in the dark at the room temperature for 5 min. After a final wash with PBS, the coverslips were mounted on a glass slide with VECTASHIELD (Vector Laboratories, Inc., Burlingame, Calif.) mounting media and allowed to stand for two hours in the dark before imaging.
(§2) Statistical analysis of cell population: Cell were categorized as displaying nuclear export of EGFP when the fluorescent intensity of the nucleus was less than 60% of the intensity of the cytoplasm. […] Cells were counted from three separate experiments, with N>50 for each experiment.

[3] = test system: EGFP-PYL and NES-ABI in CHO cells; test: Light-induced EGFP-PYL nuclear export (fixed cells); details: for subcellular location of EGFP-PYL: CHO cells; for reversibility of EGFP nuclear exportation: washed with fresh media
Experimental: The ability to use light to control protein translocation through ABA-DMNB uncaging was evaluated next. Plasmids expressing EGFP-tagged PYL and nuclear export sequence (NES) peptide-linked ABI (FIG. 22A) were transfected into CHO cells. The transfected cells were then either treated or not treated with ABA, ABA-DMNB, or ABA-DMNB and irradiated for 60 seconds. Fluorescence microscopy analysis was used to determine subcellular locations of EGFP fusion proteins. […] Furthermore, the observed nuclear export of EGFP fusion protein can be readily reversed by washing away the uncaged ABA using fresh media. Thus, protein translocation can be induced by light through photo-uncaged ABA and can be readily reversed.
as §1
Fluorescence microscopy imaging: Slides were imaged with an Axio Observer (Carl Zeiss AG, Oberkochen, Germany) microscope or with am LSM 510 Meta confocal microscope (Carl Zeiss AG, Oberkochen, Germany) mounted on an AxioObserver inverted microscope with a 63× oil objective. Images were taken with DAPI and GFP channels.
as §2

[4] = 10 μM, 405 nm light irradiation, fixed CHO cells

SMILES	luciferase expression ([1]; not irradiated, twelve hours after addition)	percentage of cells displaying ruffling ([2]; not irradiated)	subcellular location of EGFP-PYL ([3]; not irradiated)	reversibility of EGFP nuclear exportation ([3]; not irradiated)	stability in cell culture ([1]; 10 μM, dark)	Rac1 signaling activation/ruffle formation [2, 4]	EGFP-PYL nuclear export [3, 4]	luciferase expression ([1]; 10 μM, dark, 12 hours)	luciferase expression ([1]; 10 μM, dark, 24 hours)	percentage of cells displaying ruffling ([2]; 10 μM, 365 nm irradiation)	subcellular location of EGFP-PYL ([3]; 365 nm UV irradiation 60 seconds)	reversibility of EGFP nuclear exportation ([3]; after UV irradiation)	subcellular location of EGFP-PYL ([3]; not irradiated, listed as ABADMNB)
CC1=CC(=O)CC(C)(C)C1(O)/C=C/C(C)=C\C(=O)O (stereo not drawn) [ABA, abscisic acid, reference compound]	induced luciferase expression	higher percentage of ruffled cell; also recorded: greater percentage of cells displaying ruffling	exported out of the nucleus; also recorded: markedly decreased intensities of EGFP in the nuclei within 15 minutes	reversed following three washes (within 30 minutes)									
CCN(CC)c1ccc2c(COC(=O)/C=C(C)\C=C\[C@@]3(O)C(C)=CC(=O)CC3(C)C)cc(=O)oc2c1 [ABA-DEACM]					stable chemically and in cell culture	Rac1 signaling activation/ruffle formation in cells	ability to induce EGFP-PYL nuclear export						
COc1cc(COC(=O)/C=C(C)\C=C\[C@@]2(O)C(C)=CC(=O)CC2(C)C)c([N+](=O)[O-])cc1OC [ABA-DMNB]			EGFP distribution throughout the whole cells		relatively stable under the cell culture condition			very little luciferase expression	only a minimal level of luciferase was induced	higher percentage of ruffled cell; also recorded: greater percentage of cells displaying ruffling	exported out of the nucleus; also recorded: markedly decreased intensities of EGFP in the nuclei within 15 minutes	reversed following three washes (within 30 minutes)	distributed throughout the cell
